According to patent US20250084091A1, “INHIBITORS OF SARS-COV-2” (The Texas A&M University System, priority 2021, published 2025):
Read-outs that look alike come from different tables or passages of the source.

What was measured:
[1] = biological target: SARS-CoV-2 main protease (Mpro) (Severe acute respiratory syndrome coronavirus 2, UniProt P0DTD1); test: biochemical; details: read-out: Enzyme IC50
[2] = tested on: SARS-CoV-2 (strain USA-WA1/2020); test: microbe, parasite or virus in culture; type: cell-based
[3] = tested on: HeLa-ACE2 cells; test: cells; type: cell-based; details: Table 2, total cell count in infected plates
[4] = Uninfected host cell cytotoxicity counter screen; type: cell-based; details: human
Experimental: Uninfected host cell cytotoxicity counter screen: HeLa-ACE2 cells were maintained as described for the infection assay and seeded in the assay-ready plates at 400 cells/well. Plates were incubated for 24 hours at 37° C. 5% CO2. To assess cell viability, the Image-iT DEAD green reagent was used according to manufacturer instructions. Cells were fixed with 4% paraformaldehyde, and counterstained with DAPI. Fixed cells are imaged as described above.
Viral replication data analysis: Data from the primary screen and the host cell cytotoxicity screen are normalized to neutral (DMSO) […] inhibitor controls (2.5 μM Remdesivir for antiviral effect and 10 μM puromycin for infected host cell toxicity). For the uninfected host cell cytotoxicity counter-screen 40 μM puromycin is used as the positive control. Concentration response experiments will be tested in triplicate.

[5] = Severe acute respiratory syndrome coronavirus 2, Table 2, SARS-CoV-2 infected HeLa-ACE2 cells, read-out: CoV-2 HeLa EC50
[6] = Table 3, select example compounds against mpro
[7] = Severe acute respiratory syndrome coronavirus 2, HeLa, Table 3, read-out: CoV-2 HeLa EC50
[8] = Severe acute respiratory syndrome coronavirus 2, HeLa-ACE2, read-out: CoV-2 HeLa EC50, Table 2, SARS-CoV-2 infected HeLa-ACE2 cells

Compound	IC50 ([1]; Table 2)	EC50 [2, 5]	EC50 [3]	CC50 at 24 h [4]	IC50 [1, 6]	EC50 [2, 7]	EC50 [2, 8]
Cc1cncc(C(=O)N2CCN(C(c3ccc(F)cc3)c3ccccc3F)CC2)c1 (centres unmarked) [MKP-1277, 1-[(2-fluorophenyl)(4-fluorophenyl)methyl]-4-(5-methylpyridine-3-carbonyl)piperazine]	150 nM	747 nM	2700 nM	> 39800 nM			
Cc1cncc(C(=O)N2CCN(C(c3ccccc3)c3cc(F)cc(F)c3)CC2)c1 (centres unmarked) [MKP-1280, 1-[(3,5-difluorophenyl)(phenyl)methyl]-4-(5-methylpyridine-3-carbonyl)piperazine]	61 nM	158 nM	261 nM	> 39800 nM			
Cc1cncc(C(=O)N2CCN(C(c3ccccc3)c3ccccc3F)CC2)c1 (centres unmarked) [MKP-1287, 1-[(2-fluorophenyl)(phenyl)methyl]-4-(5-methylpyridine-3-carbonyl)piperazine]	66 nM	599 nM	810 nM	> 39800 nM			
Cc1cncc(C(=O)N2CCN(C(c3cccnc3)c3cccc(F)c3)CC2)c1 (centres unmarked) [MKP-1290, 1-[(3-fluorophenyl)(pyridin-3-yl)methyl]-4-(5-methylpyridine-3-carbonyl)piperazine]	96 nM	105 nM	186 nM	> 39800 nM	96 nM	105 nM	
O=C(c1cc[nH]c(=O)c1)N1CCN(C(c2ccccc2)c2ccccc2)CC1 [NZ-769, 4-[4-(diphenylmethyl)piperazine-1-carbonyl]-1,2-dihydropyridin-2-one]	11300 nM	8050 nM	> 9610 nM	> 39800 nM			
O=C(c1cncc(Br)c1)N1CCC(C(O)(c2ccccc2)c2ccccc2)CC1 [NZ-770, [1-(5-bromopyridine-3-carbonyl)piperidin-4-yl]diphenylmethanol]	380 nM	510 nM	> 9610 nM	> 39800 nM			
O=C(c1cccnc1)N1CCC(=C(c2ccccc2)c2ccccc2)CC1 [NZ-772, 3-[4-(diphenylmethylidene)piperidine-1-carbonyl]pyridine]	320 nM	1010 nM	> 9610 nM	> 39800 nM			
O=C(c1cncc(F)c1)N1CCC(C(O)(c2ccccc2)c2ccccc2)CC1 [NZ-778, [1-(5-fluoropyridine-3-carbonyl)piperidin-4-yl]diphenylmethanol]	1700 nM	3630 nM	> 9610 nM	> 39800 nM			
O=C(c1cncc(Cl)c1)N1CCC(C(O)(c2ccccc2)c2ccccc2)CC1 [NZ-779, [1-(5-chloropyridine-3-carbonyl)piperidin-4-yl]diphenylmethanol]	370 nM	710 nM	> 9610 nM	> 39800 nM			
O=C(c1cncc(F)c1)N1CCC(=C(c2ccccc2)c2ccccc2)CC1 [NZ-780, 3-[4-(diphenylmethylidene)piperidine-1-carbonyl]-5-fluoropyridine]	310 nM	1390 nM	> 9610 nM	30100 nM			
O=C(c1cncc(Cl)c1)N1CCC(=C(c2ccccc2)c2ccccc2)CC1 [NZ-781, 3-chloro-5-[4-(diphenylmethylidene)piperidine-1-carbonyl]pyridine]	110 nM	1050 nM	> 9610 nM	35800 nM			
Cc1cncc(C(=O)N2CCN(C3c4ccccc4C=Cc4ccccc43)CC2)c1 [NZ-784, (5-methyl-3-pyridyl)-[4-(2-tricyclo[9.4.0.03,8]pentadeca-1(11),3(8),4,6,9,12,14-heptaenyl)piperazin-1-yl]methanone]	88 nM	360 nM	> 9610 nM	39400 nM			
Cc1cc(C(=O)N2CCC(C(O)(c3ccccc3)c3ccccc3)CC2)c[n+]([O-])c1 [NZ-792, [4-[hydroxy(diphenyl)methyl]-1-piperidyl]-(5-methyl-1-oxo-3-pyridyl)methanone]	> 10000 nM		> 9610 nM	> 39800 nM			> 9610 nM
Cc1cncc(C(=O)N2CCN(C(c3ccccc3)c3ccc(S(C)(=O)=O)cc3)CC2)c1 (centres unmarked) [NZ-799, 1-[(4-methanesulfonylphenyl)(phenyl)methyl]-4-(5-methylpyridine-3-carbonyl)piperazine]	1240 nM	2540 nM	6580 nM	> 39800 nM			
Cc1cncc(C(=O)N2CCC(=C3c4ccccc4CS(=O)(=O)c4ccccc43)CC2)c1 [NZ-801, [4-(5,5-dioxo-6H-benzo[c][1]benzothiepin-11-ylidene)-1-piperidyl]-(5-methyl-3-pyridyl)methanone]	56 nM	42 nM	81 nM	> 39800 nM	12 nM	42 nM	
O=C(c1cncc(Br)c1)N1CCC(=C2c3ccccc3CS(=O)(=O)c3ccccc32)CC1 [NZ-802, (5-bromo-3-pyridyl)-[4-(5,5-dioxo-6H-benzo[c][1]benzothiepin-11-ylidene)-1-piperidyl]methanone]	67 nM	60 nM	41 nM	> 39800 nM			
O=C(c1cncc2nc[nH]c12)N1CCC(=C2c3ccccc3CS(=O)(=O)c3ccccc32)CC1 [NZ-803, [4-(5,5-dioxo-6H-benzo[c][1]benzothiepin-11-ylidene)-1-piperidyl]-(1H-imidazo[4,5-c]pyridin-7-yl)methanone]	91 nM	183 nM	325 nM	> 39800 nM			
O=C(c1cncc2cc[nH]c12)N1CCC(=C2c3ccccc3CS(=O)(=O)c3ccccc32)CC1 [NZ-804, [4-(5,5-dioxo-6H-benzo[c][1]benzothiepin-11-ylidene)-1-piperidyl]-(1H-pyrrolo[3,2-c]pyridin-7-yl)methanone]	30 nM	15 nM	162 nM	> 39800 nM	9 nM	15 nM	
O=C(c1cncc2[nH]ccc12)N1CCC(=C2c3ccccc3CS(=O)(=O)c3ccccc32)CC1 [NZ-805, [4-(5,5-dioxo-6H-benzo[c][1]benzothiepin-11-ylidene)-1-piperidyl]-(1H-pyrrolo[2,3-c]pyridin-4-yl)methanone]	48 nM	58 nM	64 nM	> 39800 nM	14 nM	58 nM	
O=S1(=O)Cc2ccccc2C(N2CCC(C(O)c3cccnc3)CC2)c2ccccc21 (centres unmarked) [NZ-806, [1-(5,5-dioxo-6,11-dihydrobenzo[c][1]benzothiepin-11-yl)-4-piperidyl]-(3-pyridyl)methanol]	18900 nM		> 9610 nM	> 39800 nM			> 9610 nM
Cc1cncc(C(=O)N2CCN(C(c3ccccc3)c3ccccc3S(C)(=O)=O)CC2)c1 (centres unmarked) [NZ-807, (5-methyl-3-pyridyl)-[4-[(2-methylsulfonylphenyl)-phenyl-methyl]piperazin-1-yl]methanone]	610 nM	1990 nM	> 9610 nM	> 39800 nM			
O=C(c1cncc2cc[nH]c12)N1CCN(C2c3ccccc3CS(=O)(=O)c3ccccc32)CC1 (centres unmarked) [NZ-808, [4-(5,5-dioxo-6,11-dihydrobenzo[c][1]benzothiepin-11-yl)piperazin-1-yl]-(1H-pyrrolo[3,2-c]pyridin-7-yl)methanone]	32 nM	25 nM	30 nM	> 39800 nM	10 nM	25 nM	
